Assay: xn = mol fraction of the nth substance listed
Conditions: 101 kPa

OCC(F)(F)F + CCCC[n+]1ccn(C)c1.O=S(=O)([N-]S(=O)(=O)C(F)(F)F)C(F)(F)F
viscosity [mPa·s]
Conditions | x1 = 0.0877 | x1 = 0.2626 | x1 = 0.4753 | x1 = 0.6153 | x1 = 0.7568 | x1 = 0.8748 | x1 = 1
278.15 K | 111.4 | – | – | – | – | 5.37 | 3.28
283.15 K | 84.8 | 51.2 | 24.63 | 14.14 | 7.74 | 4.62 | 2.81
288.15 K | 66 | 40.93 | 20.36 | 11.94 | 6.67 | 4.02 | 2.42
293.15 K | 52.3 | 33.18 | 17.03 | – | 5.8 | 3.53 | 2.11
298.15 K | 42.28 | – | 14.48 | 8.81 | – | 3.12 | 1.84
303.15 K | 34.67 | 22.96 | 12.43 | 7.68 | 4.45 | 2.78 | 1.62
308.15 K | 28.83 | 19.43 | 10.77 | 6.75 | 3.94 | 2.49 | 1.43
313.15 K | 24.27 | 16.63 | – | 5.99 | 3.53 | 2.25 | 1.27
318.15 K | 20.67 | 14.38 | – | 5.35 | 3.18 | 2.04 | 1.13
323.15 K | 17.78 | 12.54 | 7.38 | 4.81 | 2.88 | 1.85 | –
328.15 K | 15.43 | 11.03 | 6.6 | 4.34 | 2.62 | 1.69 | 0.925
333.15 K | 13.51 | – | 5.94 | 3.95 | 2.4 | 1.54 | 0.824

CCCC[n+]1ccn(C)c1.O=S(=O)([N-]S(=O)(=O)C(F)(F)F)C(F)(F)F + OCC(F)(F)F
x2 = 0
Conditions | viscosity [mPa·s]
278.15 K | 143
288.15 K | 82.4
293.15 K | 64.6
298.15 K | 51.6
303.15 K | 41.9
308.15 K | 34.6
313.15 K | 28.9
318.15 K | 24.4
323.15 K | 20.9
328.15 K | 18
333.15 K | 15.7
